In PMC12332266 (Frontiers in Pharmacology, 2025):
Where two headings read alike, the source gives them in different places. One block for each molecule: values may come before it.

Experiments:
[1] = ref extensive literature search, cited from earlier work
[2] = system: hiPSC-CM (iCell Cardiomyocytes^2); assay: miRNA in hiPSC-CM culture media by RT-qPCR at 24, 48 and 72 h post-treatment;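 further: medium RNA quantified by RT-qPCR, CT-values normalized to housekeeping miRNAs, compared against DMSO control, doses chosen from the MEC for CI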
Experimental: To extract total RNA from the culture media, hiPSC-CM were plated on 24-well plates by seeding 275,000 cells per mL per well. hiPSC-CM were maintained for 7 days in 200 µL of iCell^2 Maintenance Medium (iCell^2 MM; FCDI) for the 48-well ePlate and in 1 mL for 24-well plate, before drug treatment. Culture media change was performed every 2 days.
Stock solutions were diluted 1:1000 in iCell^2 MM before treatment and equilibrated at 37°C. As vehicle control, DMSO 0.1% was added to the media. Drug treatments on biological replicates (n = 3) were refreshed daily, and culture media was collected for further miRNA analysis. After 72 h, cell pellets were collected and stored at −80°C until total RNA extraction.
hiPSC-CM culture media was collected daily from 24-well plates, and centrifuged (+4°C, 11,000 rpm) for 5 min to remove cellular debris/cells. Total RNA was extracted from 300 µL of supernatant by Trizol/Chloroform phase separation and purification of total RNA by miRNeasy 96 Kit (Qiagen, Hilden, Germany). The spike-in control cel-miR-39 (Qiagen, Hilden, Germany) was used to check the quality of samples and PCR efficiency. DNase treatment (RNase-Free DNase Set (Qiagen, Hilden, Germany)) was applied according to the manufacturer’s instructions. After the RNA extraction, the same RT-qPCR protocol as for hiPSC-CM lysate was followed. Multiple unpaired t-tests were performed to compare delta CT-values (CT-values normalized to the housekeeping miRNAs) of the treatment groups to the DMSO control.
Analysis of miRNA in the culture media of hiPSC-CM treated with structural cardiotoxicants was performed at 24-, 48- and 72-hour post-treatment. […] The treatment concentrations were selected based on the MEC for CI to ensure that the preliminary evidence of cardiotoxicity in hiPSC-CMs could potentially lead to miRNA release in the culture media.

[3] = system: hiPSC-CM (iCell Cardiomyocytes^2); assay: Intracellular miRNA expression by RT-qPCR in hiPSC-CM pellets after 72-hour treatment; conditions: for fold induction at 0.0003 µM / fold induction at 0.003 µM / fold induction at 0.03 µM / fold induction at 0.3 µM: Homo sapiens
How it was run: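 After 72-hour treatment and RTCA CardioECR assessment, total RNA from hiPSC-CM pellets was reverse transcribed, pre-amplified and quantified by TaqMan RT-qPCR against a 17-miRNA panel. Triplicates were pooled, so no statistical analysis was performed.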

[4] = system: hiPSC-CM (iCell Cardiomyocytes^2); assay: RTCA CardioECR assessment (impedance and electrophysiology parameters)
How it was run: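 iCell^2 cardiomyocytes on fibronectin-coated ePlates monitored continuously by impedance for cell index, beating rate and amplitude. Field potential duration and spike amplitude were recorded from day 4–6 after monolayer formation. Data were double-normalized to DMSO control and baseline, with variability given as SD.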

[5] = 72 h, read-out: hsa-miR-7-5p fold change
[6] = 72 h, read-out: hsa-miR-29a-5p fold change
[7] = 72 h, read-out: hsa-miR-96-5p fold change
[8] = 72 h, read-out: hsa-miR-126-3p fold change
[9] = 72 h, read-out: hsa-miR-133b fold change
[10] = 72 h, read-out: hsa-miR-146b-5p fold change
[11] = 72 h, read-out: hsa-miR-182-5p fold change
[12] = 72 h, read-out: hsa-miR-185-3p fold change
[13] = 72 h, read-out: hsa-miR-187-3p fold change
[14] = 72 h, read-out: hsa-miR-208b-3p fold change
[15] = 72 h, read-out: hsa-miR-365a-5p fold change
[16] = hiPSC-CM, 72-hour treatment, lowest concentration causing at least 20% change from baseline
[17] = hiPSC-CM, 72-hour treatment, at least 20% change, Supplementary Table 1

hsa-miR-126-3p fold change, culture media ([2]; 0.3 µM, 24h): 0.4 | hsa-miR-208b-3p fold change, culture media ([2]; 0.3 µM, 24h): 0.9 | hsa-miR-[…] change, culture media ([2]; 0.3 µM, 24h): 1.6 | hsa-miR-208b-3p fold change, culture media ([2]; 0.3 µM, 48h): 1.3 | hsa-miR-[…] change, culture media ([2]; 0.3 µM, 48h): 1.4 | hsa-miR-7-5p fold change, culture media ([2]; 0.3 µM, 72 h): 0.5 | hsa-miR-133b fold change, culture media ([2]; 0.3 µM, 72 h): 2.4 | hsa-miR-187-3p fold change, culture media ([2]; 0.3 µM, 72 h): 16.0 | hsa-miR-208b-3p fold change, culture media ([2]; 0.3 µM, 72 h): 2.3 | hsa-miR-[…] change, culture media ([2]; 0.3 µM, 72 h): 0.3 | intracellular miRNA upregulation in hiPSC-CM, in words [3]: smallest fold change | miRNAs hiPSC-CM pellet, MEC overall [3]: 0.0003 µM | miRNAs upregulated at the MEC overall (hiPSC-CM pellet) [3]: miR-126-3p | hsa-miR-7-5p fold change, intracellular ([3]; 0.3 µM, 72 h): 1.0 | hsa-miR-29a-5p fold change, intracellular ([3]; 0.3 µM, 72 h): 1.0 | hsa-miR-96-5p fold change, intracellular ([3]; 0.3 µM, 72 h): 0.8 | hsa-miR-126-3p fold change, intracellular ([3]; 0.3 µM, 72 h): 1.4 | hsa-miR-133b fold change, intracellular ([3]; 0.3 µM, 72 h): 0.3 | hsa-miR-146b-5p fold change, intracellular ([3]; 0.3 µM, 72 h): 0.3 | hsa-miR-182-5p fold change, intracellular ([3]; 0.3 µM, 72 h): 0.4 | hsa-miR-185-3p fold change, intracellular ([3]; 0.3 µM, 72 h): 1.1 | hsa-miR-187-3p fold change, intracellular ([3]; 0.3 µM, 72 h): 0.7 | hsa-miR-208b-3p fold change, intracellular ([3]; 0.3 µM, 72 h): 2.2 | intracellular miRNA upregulation in hiPSC-CM, in words ([3]; human, 72 h): intracellular miR-208-3p was upregulated | Cell index (CI) MEC [4, 16]: 0.003 µM | RTCA, MEC (CI) ([4]; hiPSC-CM, change ≥20%, Table 2): 0.003 µM (CI) | Cell Index MEC ([4]; human, 72 h): 0.003 µM | Contractility Amplitude MEC ([4]; human, 72 h): 0.003 µM | Spike Amplitude (SA) MEC ([4]; human, 72 h): 0.003 µM
SMILES: CC[C@]1(O)C[C@H]2CN(CCc3c([nH]c4ccccc34)[C@@](C(=O)OC)(c3cc4c(cc3OC)N(C=O)[C@H]3[C@@](O)(C(=O)OC)[C@H](OC(C)=O)[C@]5(CC)C=CCN6CC[C@]43[C@@H]65)C2)C1 [Vincristine]
Cmax total ([1]; Supplementary Table 1): 50 nM | Cmax total ([1]; Table 1): 50 nM | hsa-miR-133b in culture media, in words ([2]; 24, 48, 72 h, doxorubicin 0.1 μM, arsenic trioxide 0.48 μM, milrinone 3 μM, vincristine 0.3 μM, vinblastine 0.3 μM, erlotinib 7.7 μM): increase that was not statistically significant | fold induction at 0.0003 µM [3, 5]: 1 | fold induction at 0.003 µM [3, 5]: 1.1 | fold induction at 0.03 µM [3, 5]: 0.9 | fold induction at 0.3 µM [3, 5]: 1 | fold induction at 0.0003 µM [3, 6]: 0.4 | fold induction at 0.003 µM [3, 6]: 0.7 | fold induction at 0.03 µM [3, 6]: 1 | fold induction at 0.3 µM [3, 6]: 1 | fold induction at 0.0003 µM [3, 7]: 0.3 | fold induction at 0.003 µM [3, 7]: 0.6 | fold induction at 0.03 µM [3, 7]: 0.3 | fold induction at 0.3 µM [3, 7]: 0.8 | fold induction at 0.0003 µM [3, 8]: 3.2 | fold induction at 0.003 µM [3, 8]: 1.9 | fold induction at 0.03 µM [3, 8]: 1.3 | fold induction at 0.3 µM [3, 8]: 1.4 | fold induction at 0.0003 µM [3, 9]: 0.3 | fold induction at 0.003 µM [3, 9]: 0.2 | fold induction at 0.03 µM [3, 9]: 0.4 | fold induction at 0.3 µM [3, 9]: 0.3 | fold induction at 0.0003 µM [3, 10]: 1.2 | fold induction at 0.003 µM [3, 10]: 0.7 | fold induction at 0.03 µM [3, 10]: 0.4 | fold induction at 0.3 µM [3, 10]: 0.3 | fold induction at 0.0003 µM [3, 11]: 0.4 | fold induction at 0.003 µM [3, 11]: 0.5 | fold induction at 0.3 µM [3, 11]: 0.4 | fold induction at 0.0003 µM [3, 12]: 1.4 | fold induction at 0.003 µM [3, 12]: 2 | fold induction at 0.03 µM [3, 12]: 1 | fold induction at 0.3 µM [3, 12]: 1.1 | fold induction at 0.0003 µM [3, 13]: 1.3 | fold induction at 0.003 µM [3, 13]: 1.9 | fold induction at 0.03 µM [3, 13]: 1.4 | fold induction at 0.3 µM [3, 13]: 0.7 | fold induction at 0.0003 µM [3, 14]: 0.8 | fold induction at 0.003 µM [3, 14]: 1.3 | fold induction at 0.03 µM [3, 14]: 1.6 | fold induction at 0.3 µM [3, 14]: 2.2 | fold induction at 0.0003 µM [3, 15]: 0.6 | fold induction at 0.003 µM [3, 15]: 1.6 | fold induction at 0.03 µM [3, 15]: 1

SMILES: CC(C)C[C@H](NC(=O)[C@H](CCc1ccccc1)NC(=O)CN1CCOCC1)C(=O)N[C@@H](Cc1ccccc1)C(=O)N[C@@H](CC(C)C)C(=O)[C@@]1(C)CO1 [Carfilzomib]
Cmax total ([1]; Supplementary Table 1): 5880 nM | Cmax total ([1]; Table 1): 5880 nM | hsa-miR-7-5p fold change, intracellular ([3]; 0.3 µM, 72 h): 8.1 | hsa-miR-29a-5p fold change, intracellular ([3]; 0.3 µM, 72 h): 0.4 | hsa-miR-96-5p fold change, intracellular ([3]; 0.3 µM, 72 h): 21.0 | hsa-miR-126-3p fold change, intracellular ([3]; 0.3 µM, 72 h): 2.1 | hsa-miR-133b fold change, intracellular ([3]; 0.3 µM, 72 h): 5.5 | hsa-miR-146b-5p fold change, intracellular ([3]; 0.3 µM, 72 h): 0.3 | hsa-miR-182-5p fold change, intracellular ([3]; 0.3 µM, 72 h): 12.6 | hsa-miR-185-3p fold change, intracellular ([3]; 0.3 µM, 72 h): 1.1 | hsa-miR-187-3p fold change, intracellular ([3]; 0.3 µM, 72 h): 0.7 | hsa-miR-208b-3p fold change, intracellular ([3]; 0.3 µM, 72 h): 1.1 | hsa-miR-365a-5p fold change, intracellular ([3]; 0.3 µM, 72 h): 0.2 | hsa-miR-7-5p fold change, intracellular ([3]; 1 µM, 72 h): 1.3 | hsa-miR-29a-5p fold change, intracellular ([3]; 1 µM, 72 h): 1.4 | hsa-miR-96-5p fold change, intracellular ([3]; 1 µM, 72 h): 5.6 | hsa-miR-126-3p fold change, intracellular ([3]; 1 µM, 72 h): 0.9 | hsa-miR-133b fold change, intracellular ([3]; 1 µM, 72 h): 0.3 | hsa-miR-146b-5p fold change, intracellular ([3]; 1 µM, 72 h): 0.08 | hsa-miR-182-5p fold change, intracellular ([3]; 1 µM, 72 h): 20.8 | hsa-miR-185-3p fold change, intracellular ([3]; 1 µM, 72 h): 9.0 | hsa-miR-187-3p fold change, intracellular ([3]; 1 µM, 72 h): 1.7 | hsa-miR-208b-3p fold change, intracellular ([3]; 1 µM, 72 h): 1.0 | hsa-miR-365a-5p fold change, intracellular ([3]; 1 µM, 72 h): 0.01 | hsa-miR-7-5p fold change, intracellular ([3]; 3 µM, 72 h): 2.3 | hsa-miR-96-5p fold change, intracellular ([3]; 3 µM, 72 h): 10.7 | hsa-miR-126-3p fold change, intracellular ([3]; 3 µM, 72 h): 0.5 | hsa-miR-133b fold change, intracellular ([3]; 3 µM, 72 h): 0.4 | hsa-miR-146b-5p fold change, intracellular ([3]; 3 µM, 72 h): 0.06 | hsa-miR-182-5p fold change, intracellular ([3]; 3 µM, 72 h): 14.0 | hsa-miR-185-3p fold change, intracellular ([3]; 3 µM, 72 h): 3.3 | hsa-miR-187-3p fold change, intracellular ([3]; 3 µM, 72 h): 2.1 | hsa-miR-208b-3p fold change, intracellular ([3]; 3 µM, 72 h): 1.0 | hsa-miR-365a-5p fold change, intracellular ([3]; 3 µM, 72 h): 0.04 | hsa-miR-7-5p fold change, intracellular ([3]; 10 µM, 72 h): 3.8 | hsa-miR-29a-5p fold change, intracellular ([3]; 10 µM, 72 h): 0.8 | hsa-miR-96-5p fold change, intracellular ([3]; 10 µM, 72 h): 1.6 | hsa-miR-126-3p fold change, intracellular ([3]; 10 µM, 72 h): 0.4 | hsa-miR-133b fold change, intracellular ([3]; 10 µM, 72 h): 0.3 | hsa-miR-146b-5p fold change, intracellular ([3]; 10 µM, 72 h): 0.01 | hsa-miR-182-5p fold change, intracellular ([3]; 10 µM, 72 h): 5.7 | hsa-miR-185-3p fold change, intracellular ([3]; 10 µM, 72 h): 0.2 | hsa-miR-187-3p fold change, intracellular ([3]; 10 µM, 72 h): 20.5 | hsa-miR-208b-3p fold change, intracellular ([3]; 10 µM, 72 h): 1.0 | hsa-miR-365a-5p fold change, intracellular ([3]; 10 µM, 72 h): 0.02 | miRNAs upregulated at the MEC overall (hiPSC-CM pellet) ([3]; fold change ≥2, 72 h): miR-126-3p, miR-133b, miR-182-5p, miR-184, miR-187-3p, miR-7-5p, miR-96-5p | miRNAs hiPSC-CM pellet, MEC overall ([3]; lowest concentration tested which produced miRNA upregulation (fold change ≥2), 72 h): 0.3 µM | effect on BR at the lowest concentration tested ([4]; hiPSC-CM, 72-hour treatment): quiescence (beat stop) | Field Potential Duration MEC ([4]; hiPSC-CM, 72-hour treatment, at least 10% change): 0.3 µM | Contractility Amplitude MEC ([4]; hiPSC-CM, 72-hour treatment, at least 20% change): 0.3 µM | Beating Rate MEC [4, 17]: 0.3 µM | Cell Index MEC [4, 17]: 0.3 µM | Spike Amplitude (SA) MEC ([4]; hiPSC-CM, 72-hour treatment, at least 40% change): 0.3 µM | Beating rate (BR) MEC [4, 16]: 0.3 µM | Cell index (CI) MEC [4, 16]: 0.3 µM | RTCA, MEC (BR) ([4]; hiPSC-CM, change ≥20%, Table 2): 0.3 µM (CI, BR (Q)) | RTCA, MEC (CI) ([4]; hiPSC-CM, change ≥20%, Table 2): 0.3 µM (CI, BR (Q))
